Experimental data as given in patent US9684238B2, “Fluorene-type compound, photopolymerization initiator comprising said fluorene-type compound, and photosensitive composition containing said photopolymerization initiator” (TOKYO OHKA KOGYO CO., LTD., priority 2012, dated 2017).

Assays:
[1] = Absorption coefficient (absorbance of 0.001% solution in tetrahydrofuran); type: physicochemical; conditions: for Λ max (absorption maximum wavelength): 0.001% (wt/vol) in tetrahydrofuran, from 280 nm to 400 nm; for Absorption coefficient at 365 nm / Absorption coefficient at Λ max: 0.001% (wt/vol) solution in tetrahydrofuran
Protocol: A 0.001% (wt/vol) solution of each of the compounds 1, 2, 4, 6, 8, 9, 11, 12, 13, 15, 16, D-1, D-3, D-4, D-7, D-8, D-9, D-12, D-14, D-15, D-20, C-1, and C-2 in tetrahydrofuran was prepared, and its absorbance was measured with a spectrophotometer (manufactured by Hitachi High-Technologies Corporation, trade name: “U-3900H”). An absorption maximum wavelength (Amax) at a wavelength of from 280 nm to 400 nm was read from an absorption spectrum obtained with the spectrophotometer.

[2] = Decomposition point by thermal analysis (TG-DTA); type: physicochemical; conditions: 5.0 mg
Protocol: The compounds 1, 2, 4, 6, 8, 9, 11, 12, 13, 15, 16, D-1, D-3, D-4, D-7, D-8, D-9, D-12, D-14, D-15, D-20, C-1, and C-2 were each subjected to measurement with a thermal analysis apparatus (TG-DTA) (manufactured by Rigaku Corporation, trade name: “Thermo Plus EVO TG 8120”) by using 5.0 mg thereof.

[3] = Solubility in PGME, PGMEA and ethyl lactate; type: physicochemical; conditions: for Solubility Ethyl lactate: in 100 parts by weight of ethyl lactate; for Solubility Ethyl lactate / Solubility PGMEA / Solubility PGME: room temperature; for Solubility PGMEA: in 100 parts by weight of propylene glycol monomethyl ether acetate; for Solubility PGME: in 100 parts by weight of propylene glycol monomethyl ether
Protocol: An evaluation for solubility was performed in accordance with the following evaluation criteria based on the dissolution amount.
A: 10 Parts by weight or more of the photopolymerization initiator is dissolved.
B: An amount in the range of from 5 parts by weight or more to less than 10 parts by weight of the photopolymerization initiator is dissolved.
C: An amount in the range of from 2 parts by weight or more to less than 5 parts by weight of the photopolymerization initiator is dissolved.
D: Less than 2 parts by weight of the photopolymerization initiator is dissolved.

[4] = Evaluation 1: 20-μm pattern line width of transparent photosensitive composition; conditions: for sensitivity to the active energy ray (in words): photopolymerization initiator containing the compound; for 20-μm pattern line width: transparent composition, initiator 0.4 mmol
Protocol: After that, the mixture was filtered with a membrane filter having an aperture of 5 μm to provide a photosensitive composition.
It should be noted that the fluorene-based compound as a photopolymerization initiator was used in such an amount that its molar quantity was kept constant in the respective examples and comparative examples.
The glass substrate after the application was dried with a fan dryer at 90° C. for 10 minutes. Thus, a coating film (photosensitive layer) was formed. Next, the film was exposed to light having an exposure energy quantity of 5 mJ/cm^2, 10 mJ/cm^2, 20 mJ/cm^2, 40 mJ/cm^2, 60 mJ/cm^2, or 80 mJ/cm^2 by using a high-pressure mercury lamp (manufactured by Karl Suss, trade name: “MASK ALIGNER”) through a negative mask (mask width: 20 μm). Next, the resultant was immersed in a 0.1 wt % aqueous solution of tetramethylammonium hydroxide (TMAH) and then rinsed with pure water. The remaining cured film was subjected to the following evaluation.
(§1) A larger value for the line width means higher sensitivity.

[5] = Average transmittance of composition; type: physicochemical; conditions: photosensitive composition, quartz cell, optical path length 1 cm
Protocol: The average transmittance (%) of each of the photosensitive resin compositions obtained in Examples 1 to 9, Examples 2-1 to 2-10, and Comparative Examples 1 and 2 in the range of from 400 nm to 700 nm was measured with a spectrophotometer (manufactured by Hitachi High-Technologies Corporation, trade name: “U-3900H”, quartz cell, optical path length; 1 cm).

[6] = Transmittance of transparent cured film; type: physicochemical; conditions: cured at exposure energy quantity 80 mJ/cm^2
Protocol: Transparent cured films were formed by using the photosensitive compositions obtained in Examples 1 to 9, Examples 2-1 to 2-10, and Comparative Examples 1 and 2 in the same manner as in the evaluation 1 except that the exposure energy quantity was set to 80 mJ/cm^2. The transmittance (%) of each of the resultant transparent cured films at 400 nm and the average transmittance (%) thereof in the range of from 400 to 700 nm were measured with a spectrophotometer (manufactured by Hitachi High-Technologies Corporation, trade name: “U-3900H”, quartz cell, optical path length; 1 cm). A higher transmittance at 400 nm means less coloring with a yellow color. In addition, a higher transmittance of a coating film means a higher transmitting property of a pattern to be formed.

[7] = Evaluation 3: 20-μm pattern line width of black photosensitive composition; conditions: black composition (carbon black, cardo resin), initiator 0.4 mmol
From the text: The mixture was filtered with a membrane filter having an aperture of 5 μm to provide a photosensitive composition.
Photosensitive compositions were each obtained in the same manner as in Example 10 except that the used fluorene-based compound and its usage were changed as shown in Table 5.
Each of the photosensitive compositions obtained in Examples 10 to 15, Examples 2-11 to 2-20, and Comparative Example 3 was applied onto a glass substrate with a spin coater (manufactured by Kyowariken Co., Ltd., trade name: “K-359SD1”) so that its thickness after drying became 1.0 μm. The glass substrate after the application was dried with a fan dryer at 90° C. for 10 minutes. Thus, a coating film (photosensitive layer) was formed. Next, the film was exposed to light having an exposure energy quantity of 10 mJ/cm^2, 20 mJ/cm^2, 40 mJ/cm^2, 60 mJ/cm^2, or 80 mJ/cm^2 by using a high-pressure mercury lamp (manufactured by Karl Suss, trade name: “MASK ALIGNER”) through a negative mask (mask width: 20 μm). Next, the resultant was immersed in a 0.1 wt % aqueous solution of tetra methyl ammonium hydroxide (TMAH) and then rinsed with pure water. The remaining cured film was subjected to the following evaluation. In addition, FIGS. 2, 3, and 6 show microscope photographs of black cured films obtained by using the photosensitive compositions of Examples 10 and 11, and Comparative Example 3, and FIGS. 7 to 11 show microscope photographs of black cured films obtained by using the photosensitive compositions of Examples 2-11, 2-13, 2-14, 2-17, and 2-18.
as §1

[8] = exposure energy quantity 5 mJ/cm^2
[9] = exposure energy quantity 10 mJ/cm^2
[10] = exposure energy quantity 20 mJ/cm^2
[11] = exposure energy quantity 40 mJ/cm^2
[12] = exposure energy quantity 80 mJ/cm^2

Λ max (absorption maximum wavelength) [1] [nm]	Absorption coefficient at 365 nm [1] [mL/mg/cm]	Absorption coefficient at Λ max [1] [mL/mg/cm]	Decomposition point [2] [°C]	Average transmittance (700 nm to 400 nm) Solution [5] [%]	Average transmittance (700 nm to 400 nm) Transparent cured film [6] [%]	Transmittance (400 nm) Transparent cured film [6] [%]	Compound	Solubility Ethyl lactate [3]	Solubility PGMEA [3]	Solubility PGME [3]	sensitivity to the active energy ray (in words) [4]	20-μm pattern line width [4, 9]	20-μm pattern line width [4, 10]	20-μm pattern line width [4, 11]	20-μm pattern line width [4, 12]	20-μm pattern line width ([7]; 10 mJ/cm^2)	20-μm pattern line width ([7]; 20 mJ/cm^2)	20-μm pattern line width ([7]; 40 mJ/cm^2)	20-μm pattern line width ([7]; 60 mJ/cm^2)	20-μm pattern line width ([7]; 80 mJ/cm^2)	also measured
345.5	46.3	67.8	272.2	88.9	99.8	95.2	CCCC1(CCC)c2cc(C(C)=NOC(C)=O)ccc2-c2ccc([N+](=O)[O-])cc21 [Compound D-3]	D (Less than 2 parts by weight of the photopolymerization initiator is dissolved.)	C (An amount in the range of from 2 parts by weight or more to less than 5 parts by weight of the photopolymerization initiator is dissolved.)	D (Less than 2 parts by weight of the photopolymerization initiator is dissolved.)	additionally high sensitivity to the active energy ray	20.9	21.4	22.5	23.8	19.6	20.6	21.6	22.1	22.6	20-μm pattern line width [4, 8]: 19.6
343.5	33.2	54.1	273.4	57.5	99.2	91.7	CCCC1(CCC)c2cc(C(=NOC(C)=O)c3ccccc3)ccc2-c2ccc([N+](=O)[O-])cc21 [Compound D-1]	D (Less than 2 parts by weight of the photopolymerization initiator is dissolved.)	C (An amount in the range of from 2 parts by weight or more to less than 5 parts by weight of the photopolymerization initiator is dissolved.)	D (Less than 2 parts by weight of the photopolymerization initiator is dissolved.)	additionally high sensitivity to the active energy ray	20.2	20.9	22.4	23.1	19.4	20.4	21.9	22.3	23.1	20-μm pattern line width ([4]; exposure energy quantity 60 mJ/cm^2): 22.8
343.0	29.1	63.7	228.9	70.9	99.8	96.4	CCCC1(CCC)c2cc(C(=O)/C(C)=N/OC(C)=O)ccc2-c2ccc(C(=O)c3ccc([N+](=O)[O-])cc3)cc21 [Compound D-9]	C (An amount in the range of from 2 parts by weight or more to less than 5 parts by weight of the photopolymerization initiator is dissolved.)	C (An amount in the range of from 2 parts by weight or more to less than 5 parts by weight of the photopolymerization initiator is dissolved.)	D (Less than 2 parts by weight of the photopolymerization initiator is dissolved.)		19.5	20.0	20.7	21.7	18.8	19.1	20.1	20.9	21.2	20-μm pattern line width [4, 8]: 19.3
345.5	39.0	58.4	174.7	79.9	99.7	93.6	CCCC1(CCC)c2cc(C(CCCCl)=NOC(C)=O)ccc2-c2ccc([N+](=O)[O-])cc21 [Compound D-12]	B (An amount in the range of from 5 parts by weight or more to less than 10 parts by weight of the photopolymerization initiator is dissolved.)	A (10 Parts by weight or more of the photopolymerization initiator is dissolved.)	A (10 Parts by weight or more of the photopolymerization initiator is dissolved.)	additionally high sensitivity to the active energy ray	20.6	21.4	22.3	23.3	19.1	20.5	21.6	22.5	22.7	solubility (in words) ([3]; photopolymerization initiator containing the compound): additionally excellent solubility; 20-μm pattern line width [4, 8]: 19.8
